US8092810B2, “Use of polypeptides having antimicrobial activity” (Novozymes A/S, priority 2006, dated 2012)
In brackets after ≈: the same amount, converted by molar mass. Read-outs that look alike come from different tables or passages of the source.

Tests used:
Assay in all cases: MIC broth microdilution
Format in all cases: cell-based
[1] = tested on: Salmonella typhimurium ATCC 13311; settings: Salmonella enterica
Experimental: (§1) Briefly, the MIC was determined by microbroth dilution assay in a 96 well plate. 4-5 colonies of each bacterium tested were added to 5 ml of MHB, placed in a 35° C. shaker until the OD 600 nm reached 0.08-0.10. The inoculum was diluted 1:100 and 50 microliters were added to each well which contained 50 microliters of serial two fold dilutions of Lento, vancomycin or ciprofloxacin. Each concentration of antibiotic or Lento was tested in duplicate. The plate was placed at 35° C. overnight. MICs were determined after 24 hours incubation and defined by the well containing the lowest amount of antibiotic with no visible growth.

[2] = tested on: Staphylococcus aureus (GISA) ATCC 700699
Experimental: as §1

[3] = tested on: Staphylococcus aureus ATCC 29737; settings: Staphylococcus aureus, ATCC29737, 24 h
Experimental: as §1

[4] = tested on: Eschericia coli ATCC 35218; settings: 24 h
Experimental: as §1

[5] = tested on: Streptococcus pneumoniae (PSRSP) ATCC 700671
Experimental: as §1

[6] = tested on: Enterococcus faecium ATCC 51559; settings: ATCC51559; Enterococcus faecium ATCC 51559, Gram +; MHB, 35° C., 24 hours; read-out: MIC
Experimental: as §1

[7] = tested on: Micrococcus luteus ATCC 9341
Experimental: as §1

[8] = tested on: Corynebacterium jeikeium ATCC 43734; settings: Corynebacterium jeikeium, ATCC43734, 24 h
Experimental: as §1

[9] = tested on: Staphylococcus epidermidis ATCC 12228; settings: Staphylococcus epidermidis, ATCC12228, 24 h
Experimental: as §1

[10] = tested on: Staphylococcus aureus subsp. aureus (MRSA) ATCC 700788
Experimental: as §1

[11] = tested on: Enterococcus faecalis (VRE) ATCC 51299
Experimental: as §1

[12] = tested on: Eschericia coli ATCC 25922
Experimental: as §1

[13] = tested on: Staphylococcus aureus subsp. aureus (MRSA & GISA) ATCC 700789
Experimental: as §1

[14] = tested on: Shigella dysenteriae ATCC 11835; settings: Shigella dysenteriae, ATCC11835, 24 h
Experimental: as §1

[15] = tested on: Staphylococcus aureus ATCC 27734
Experimental: as §1

[16] = tested on: Streptococcus pneumoniae ATCC 49619
Experimental: as §1

[17] = tested on: Staphylococus aureus (GISA) ATCC 700787
Experimental: as §1

[18] = tested on: Eschericia coli ATCC 10536
Experimental: as §1

[19] = tested on: Streptococcus pneumoniae (TCRSP) ATCC 700902
Experimental: as §1

[20] = tested on: Streptococcus pneumoniae ATCC 700676
Experimental: as §1

[21] = tested on: Acinetobacter sp. ATCC 49137
Experimental: as §1

[22] = tested on: Burkholderia cepacia ATCC 25416
[23] = tested on: Corynebacterium jeikeium ATCC 43216; settings: Corynebacterium jeikeium, ATCC43216, 24 h
Experimental: as §1

[24] = tested on: Pseudomonas aeruginosa ATCC 27853; settings: ATCC27853, 24 h
Experimental: as §1

[25] = tested on: Staphylococcus aureus ATCC 29213; settings: Staphylococcus aureus, ATCC29213, 24 h
Experimental: as §1

[26] = tested on: Bacillus cereus ATCC 4342; settings: Bacillus cereus, ATCC4342, 24 h
Experimental: as §1

[27] = tested on: Staphylococcus aureus (MRSA) ATCC 33591; settings: 24 h
Experimental: as §1

[28] = tested on: Stenotrophomas maltophilia ATCC 13637; settings: 24 h
Experimental: as §1

[29] = tested on: Klebsiella pneumoniae ATCC 10031; settings: ATCC10031, 24 h
Experimental: as §1

O=C(O)c1cn(C2CC2)c2cc(N3CCNCC3)c(F)cc2c1=O [Ciprofloxacin]
MIC ([1]; Salmonella typhimurium ATCC 13311, Gram −, MHB, 35° C., 24 hours, read-out: MIC): 0.0625 µg/mL (≈ 0.189 µM) | MIC ([2]; ATCC700699, Staphylococcus aureus (GISA) ATCC 700699, Gram +, MHB, 35° C., 24 hours, read-out: MIC): 16 µg/mL (≈ 48.3 µM) | MIC [3]: 0.0625 to 0.25 µg/mL (≈ 0.189 to 0.754 µM) | MIC [4]: 0.0625 µg/mL (≈ 0.189 µM) | MIC ([5]; ATCC700671, Streptococcus pneumoniae (PSRSP) ATCC 700671, Gram +, MHB, 35° C., 24 hours, read-out: MIC): 1 to 2 µg/mL (≈ 3.02 to 6.04 µM) | MIC [6]: > 64 µg/mL | MIC ([7]; ATCC9341, Micrococcus luteus ATCC 9341, Gram +, MHB, 35° C., 24 hours, read-out: MIC): 1 µg/mL (≈ 3.02 µM) | MIC [8]: 0.0625 µg/mL (≈ 0.189 µM) | MIC [9]: 0.0625 µg/mL (≈ 0.189 µM) | MIC ([10]; Staphylococcus aureus subsp. aureus (MRSA) ATCC 700788, Gram +, MHB, 35° C., 24 hours, read-out: MIC): 8 µg/mL (≈ 24.1 µM) | MIC ([11]; Enterococcus faecalis (VRE) ATCC 51299, Gram +, MHB, 35° C., 24 hours, read-out: MIC): 0.5 µg/mL (≈ 1.51 µM) | MIC ([12]; Eschericia coli ATCC 25922, Gram −, MHB, 35° C., 24 hours, read-out: MIC): 0.0625 µg/mL (≈ 0.189 µM) | MIC ([13]; Staphylococcus aureus subsp. aureus (MRSA & GISA) ATCC 700789, Gram +, MHB, 35° C., 24 hours, read-out: MIC): 16 µg/mL (≈ 48.3 µM) | MIC [14]: 0.0625 µg/mL (≈ 0.189 µM) | MIC ([15]; ATCC27734, Staphylococcus aureus ATCC 27734, Gram +, MHB, 35° C., 24 hours, read-out: MIC): 8 µg/mL (≈ 24.1 µM) | MIC ([16]; ATCC49619, Streptococcus pneumoniae ATCC 49619, Gram +, MHB, 35° C., 24 hours, read-out: MIC): 0.5 µg/mL (≈ 1.51 µM) | MIC ([17]; Staphylococus aureus (GISA) ATCC 700787, Gram +, MHB, 35° C., 24 hours, read-out: MIC): 16 µg/mL (≈ 48.3 µM) | MIC ([18]; Eschericia coli ATCC 10536, Gram −, MHB, 35° C., 24 hours, read-out: MIC): 0.0625 µg/mL (≈ 0.189 µM) | MIC ([19]; ATCC700902, Streptococcus pneumoniae (TCRSP) ATCC 700902, Gram +, MHB, 35° C., 24 hours, read-out: MIC): 0.5 to 1 µg/mL (≈ 1.51 to 3.02 µM) | MIC ([20]; ATCC700676, Streptococcus pneumoniae ATCC 700676, Gram +, MHB, 35° C., 24 hours, read-out: MIC): 1 µg/mL (≈ 3.02 µM) | MIC ([21]; ATCC49137, Acinetobacter sp. ATCC 49137, Gram −, MHB, 35° C., 24 hours, read-out: MIC): 0.0625 µg/mL (≈ 0.189 µM) | MIC ([22]; ATCC25416, Burkholderia cepacia ATCC 25416, Gram −, MHB, 35° C., 24 hours, read-out: MIC): 0.25 µg/mL (≈ 0.754 µM)

CN[C@H](CC(C)C)C(=O)N[C@H]1C(=O)N[C@@H](CC(N)=O)C(=O)N[C@H]2C(=O)N[C@H]3C(=O)N[C@H](C(=O)N[C@H](C(=O)O)c4cc(O)cc(O)c4-c4cc3ccc4O)[C@H](O)c3ccc(c(Cl)c3)Oc3cc2cc(c3O[C@@H]2O[C@H](CO)[C@@H](O)[C@H](O)[C@H]2O[C@H]2C[C@](C)(N)[C@H](O)[C@H](C)O2)Oc2ccc(cc2Cl)[C@H]1O [Vancomycin, vancomycin]
MIC ([1]; 24 h): > 64 µg/mL | MIC ([2]; Staphylococcus aureus, ATCC700699, 24 h): 8 µg/mL (≈ 5.52 µM) | MIC [3]: 0.5 µg/mL (≈ 0.345 µM) | MIC [4]: > 64 µg/mL | MIC ([5]; Streptococcus pneumoniae, ATCC700671, 24 h): 0.5 µg/mL (≈ 0.345 µM) | MIC ([7]; Micrococcus luteus, ATCC9341, 24 h): 0.5 µg/mL (≈ 0.345 µM) | MIC [8]: 0.25 µg/mL (≈ 0.173 µM) | MIC [9]: 1 µg/mL (≈ 0.69 µM) | MIC ([10]; Staphylococcus aureus, 24 h): 2 µg/mL (≈ 1.38 µM) | MIC ([11]; Enterococcus faecalis, 24 h): 2 µg/mL (≈ 1.38 µM) | MIC ([12]; 24 h): > 64 µg/mL | MIC ([13]; Staphylococcus aureus, 24 h): 2 µg/mL (≈ 1.38 µM) | MIC [14]: > 64 µg/mL | MIC [23]: 0.25 µg/mL (≈ 0.173 µM) | MIC [24]: > 64 µg/mL | MIC ([15]; Staphylococcus aureus, ATCC27734, 24 h): 1 µg/mL (≈ 0.69 µM) | MIC ([16]; Streptococcus pneumoniae, ATCC49619, 24 h): 0.5 to 1 µg/mL (≈ 0.345 to 0.69 µM) | MIC [25]: 0.5 µg/mL (≈ 0.345 µM) | MIC [26]: 1 µg/mL (≈ 0.69 µM) | MIC ([17]; 24 h): 8 µg/mL (≈ 5.52 µM) | MIC ([18]; 24 h): > 64 µg/mL | MIC ([19]; Streptococcus pneumoniae, ATCC700902, 24 h): 0.25 µg/mL (≈ 0.173 µM) | MIC ([20]; Streptococcus pneumoniae, ATCC700676, 24 h): 0.25 µg/mL (≈ 0.173 µM) | MIC [27]: 1 µg/mL (≈ 0.69 µM) | MIC ([21]; Acinetobacter, ATCC49137, 24 h): > 64 µg/mL | MIC [28]: 32 µg/mL (≈ 22.1 µM) | MIC [29]: > 64 µg/mL | MIC ([22]; Burkholderia cepacia, ATCC25416, 24 h): > 64 µg/mL
